PMC4557640 (2015)

Legend:
[1] = system: Aod(xtal) (RNA, riboswitch) GGGUCGUGACUGGCGAACAGGUGGGAAACCACCGGGGAGCGACCCUUGCCGCCCGCCUGGGCAA; experiment: ITC; conditions: 135 mM KCl, 15 mM NaCl, 10 mM MgCl2; 10 mM K-HEPES pH 8.0
[2] = system: Aod(xtal-wtL2) (RNA, riboswitch) GGGUCGUGACUGGCGAACAGGUGGGCCACCACCGGGGAGCGACCCUUGCCGCCCGCCUGGGCAA; experiment: ITC; conditions: 135 mM KCl, 15 mM NaCl, 10 mM MgCl2; 10 mM K-HEPES pH 8.0

KD [1]: 1080 ± 60 nM
KD [2]: 470 ± 30 nM
Compound: NC(=O)c1ncn([C@@H]2O[C@H](COP(=O)(O)O)[C@@H](O)[C@H]2O)c1N
